row,melting point [°C],SMILES
1,172 to 175,Oc1cccc(-c2cc3n(n2)-c2ccccc2CC3)c1
2,108 to 110,O=Cc1c[nH]c2cccc(OCC3CO3)c12 (configuration not stated)
3,138 to 140,COc1cccc2c1CCC1C(=O)OC(=O)C21 (configuration not stated)
4,214 to 215,CN(C)S(=O)(=O)c1cc(C(=O)O)cc(N2CCCC2)c1Oc1ccccc1
5,264,O=c1[nH][nH]c(=O)c2c(O)c3cc([N+](=O)[O-])ccc3nc12
6,124 to 125,Cn1ncc2c1-c1c(Oc3cccnc3)sc(C(=O)O)c1CC2
7,86 to 89,CC(=O)OCc1ccc(N(c2ccccc2)c2ccccc2)cc1
8,109 to 110,COc1cc(C(C)(C)CNC(=O)c2ccccc2)cc2c1OC(C)(C)C2
9,134 to 137,O=C(Oc1cc(F)ccc1F)c1cc2ccccc2oc1=O
10,145 to 146,CN(C)C(=O)C(CCO)C1(C)CCCc2c1[nH]c1ccccc21 (configuration not stated)
11,81 to 82,ClCCc1nnc2ccccc2c1Cl
12,48 to 50,CC(C)=Cc1ccc(/C=C/CCl)cc1
13,179 to 180,CC(C)(C)c1csc(-c2cc3cc(O)ccc3o2)n1
14,170,COc1ccc(-c2c(SCc3ccncc3)oc3cc(OCc4ccccc4)ccc3c2=O)cc1
15,88 to 92,Cc1ccc2ccc3ccccc3c2c1O
16,106 to 107,CC(=O)C=Cc1ccc(OCc2ccccc2)cc1
17,136,O=C(OCc1ccccc1)c1cc2ccccc2[nH]1
18,193 to 195,CCc1cc(C)c(F)c(CC)c1-c1c(O)c(C)nn(C)c1=O
19,205 to 206,CCCc1nc2c(N)nc3cc(OCc4ccccc4OC)ccc3c2n1CC(C)C
20,276 to 277,Cc1nc2c(O)c(CC[C@@H](O)c3ccc(F)cc3)c(C(=O)N(C)C)cc2n1C
21,208,COc1nnc(SCC2=C(C(=O)O)N3C(=O)C(NC(=O)Cc4csc(=O)s4)C3SC2)s1 (configuration not stated)

row,melting point [°C],SMILES
1,125 to 126,COc1ccc(C[C@H]2NC(=O)O[C@H]2c2ccc(F)cc2)cc1 (racemic)
2,135 to 137,Cc1nc2ccc(OC(F)(F)F)cc2[nH]1
3,86 to 88,Nc1cc(Br)c(F)c(Cl)c1F
4,164,O=C(O)c1ccccc1Oc1ccc(C(F)(F)F)cc1NS(=O)(=O)c1ccc(Cl)cc1
5,128 to 129,CC(C)(C)c1ccc(CC[C@H](O)CCCC2CCCCC2)cc1NC(=O)CC1c2ccccc2Oc2ccccc21
6,195 to 196,CC(C)(C)c1nnc(NN=Cc2ccccc2)s1
7,110 to 112,ClC(c1ccccc1)c1cccnn1 (configuration not stated)
8,211,CCNC(=S)NS(=O)(=O)c1cc2c(cc1OC)OC(C)(C)C(NC(=O)c1cc(F)ccc1OC)C2 (configuration not stated)
9,63,Cc1cc(Cc2ccccc2)c(NCc2ccccn2)c(=O)n1CC(=O)O
10,134 to 135,O=C1c2ccccc2C(=O)N1CCc1ccc(C(F)(F)F)cc1
11,222 to 224,O=S1(=O)N=CN(C2CCCCCC2)c2cc(Cl)c(Cl)cc21
12,234 to 235,COc1ccc2c(c1)c(C)cc(=O)n2-c1ccc(Cl)cc1
13,54.5 to 56.5,CCOc1ccc2c(c1)C(C)=CC(C)(C)N2C(=O)OC
14,282 to 283,N=c1[nH]c2ccc(Cl)cc2c2nc(-c3ccc(Br)o3)nn12
15,174 to 175,Cn1cc(C(=O)c2ccncc2)cc1C(=O)c1ccc(Cl)cc1
16,85 to 86,CCNc1cn(-c2cncc(F)c2)nc1C
17,165 to 167,CCCc1nn(C)c2c1N=C(c1cc(CCC(=O)O)ccc1OCC)NC2
18,286 to 290,Nc1cc(-c2ccccc2)n(-c2ccc(S(N)(=O)=O)cc2)n1
19,127 to 130,CCN(CC)CCOc1ccc(NC(=O)C#Cc2ccc(C(F)(F)F)cc2Cl)cc1N
20,139,S=c1n(CN2CCCC2)nc(-c2ccncc2)n1-c1ccccc1

row,SMILES,melting point [°C]
1,O=NCNC1=Nc2sc(Cl)cc2C(c2ccccc2)=NC1,108 to 110
